Data as given in patent publication US20190274952A1, “TOPICAL USE OF AN ANTIMICROBIAL FORMULATION” (priority 2013, published 2019).
Read-outs that look alike come from different tables or passages of the source.

How the values were obtained:
[1] = cited from earlier work
[2] = system: Staphylococcus aureus (ATCC 6538); assay: Minimal concentration for total antimicrobial activity, AOAC method 955.15 (Phenol Coefficient Method); assay type: cell-based; conditions: agent incorporated into formulation F, contact time 10 minutes
Description: The minimum concentration at which a total antimicrobial activity could be observed is determined for selected phenolic compounds of natural origin and selected essential oils using the AOAC method 955.15 (“Phenol Coefficient Method”) with minor modifications. Different concentrations of essential oils and phenolic compounds of natural origin are incorporated into formulation F (see table hereinbelow) and inoculated with a 0.05% bacterial suspension of Staphylococcus aureus (ATCC 6538; concentration of about 8 logs). After a contact time of 10 minutes, 0.1 ml of the inoculated solution is transferred to a broth culture with neutralizing (Difco 268110) and incubated over a period of 72 hours at 37° C. The presence of turbidity in the broth culture is indicative of the survival of the microorganism

Row | Compound | LD50 Oral-rat ([1]; ingredients of Formulation 1) | Minimal Concentration [2] | further results
1 | OCCCO [1,3-Propanediol] | >15 000 mg/kg |  | 
2 | Cc1ccc(C(C)C)cc1O [Carvacrol] |  | 0.07 v/v % | 
3 | CCCCCCCCCCCCCCCC[N+](C)(C)CC(=O)[O-] [Cetyl Betaine] | 1620 mg/kg |  | 
4 | CC(C)=CCCC(C)=CC=O [Citral] |  | >1% v/v % | 
5 | C=CCc1ccc(O)c(OC)c1 [Eugenol] |  | 0.4 v/v % | 
6 | C=O [Formaldehyde] |  |  | LD50 ([1]; rat, in vivo, po): of 100 mg/Kg; LD50 Oral-rat ([1]; rat, in vivo, po): 100 mg/kg; Toxicity ([1]; rat, in vivo): Toxic
7 | COCC(C)O (centres unmarked) [Glycol Ether PM] | 5 210 mg/kg |  | 
8 | Cc1ccc(C(C)C)c(O)c1 [Thymol] |  | 0.07 v/v % | 
9 | Sodium Laureth Sulfate | >5000 mg/kg |  | 
